# Test results: patent US8765767B2, “Positive allosteric modulators of mGluR2” (Bristol-Myers Squibb Company, priority 2012, dated 2014)
# Molecular target: T1, human mGluR2 (Homo sapiens, UniProt Q14416)
# T1 construct: expressed in transfected cells; host or cells: HEK293 clonal line
# Experiment: mGluR2 cAMP assay (HTRF) in HEK293 cells clonally expressing human mGluR2
# Format: cell-based
# Conditions: HEK293 cells expressing human mGluR2, 1 μM forskolin, 1 μM LY-341495, 30 min
# Description: • Cell Culture. Clonally expressed human mGluR2 in HEK293 background was glutamate starved overnight in media without glutamine (GIBCO MEM 12360), containing 10% FBS, 1% penicillin streptomycin. • cAMP Measurement. On the day of the assay, media was removed, cells washed with PBS, cells harvested and pelleted by centrifugation. Cell pellets were resuspended in stimulation buffer without forskolin and counted. A solution of 1.25×10^6 cells/mL was prepared and dispensed to plates using a Combi liquid handler (Thermo). A standard curve was created using a top concentration of cAMP of 1 μM in the stimulation buffer, 1:3 dilutions over 14 points in the absence of cells. Plates were read by time-resolved fluorescence at […] and a ratio was calculated via in house software, (665 nM/618 nM)*10^4. In house software converted the fluorescence value ratios to units of cAMP concentration, which is then used to calculate % inhibition for each test compound. • MGluR2 cAMP Assay Materials and Methods. Compounds were added to white, standard volume 384 non-binding surface plates (Corning 3574). Cells were resuspended in stimulation buffer consisting of Hanks Balanced Salt Solution (14175-095) pH 7.0, 20 mM HEPES, 2.0 mM CaCl2, 5.0 mM MgCl2, and 1 mM IBMX (Sigma 15879), 1 μM forskolin, and 1 μM LY-341495 for 30 min. Buffer without forskolin was used as a negative control. Solutions of D2 and cryptate detection reagents from the CISBIO dynamic cAMP kit (62AM4PEJ) were diluted 1:40 in lysis buffer. Lysis buffer consisted of 50 mM Phosphate Buffer pH 7.0, 800 mM Potassium Fluoride, 0.2% BSA, and 1.0% Triton. Assay reaction was terminated by addition of detection reagents in lysis buffer. One hour later, plates were read on a PE Viewlux. Data was extracted, and concentration response curves generated by fitting the data to a standard 4 parameter logistic equation from which EC50 values were determined.
# T1 sequence (Q14416 19-872): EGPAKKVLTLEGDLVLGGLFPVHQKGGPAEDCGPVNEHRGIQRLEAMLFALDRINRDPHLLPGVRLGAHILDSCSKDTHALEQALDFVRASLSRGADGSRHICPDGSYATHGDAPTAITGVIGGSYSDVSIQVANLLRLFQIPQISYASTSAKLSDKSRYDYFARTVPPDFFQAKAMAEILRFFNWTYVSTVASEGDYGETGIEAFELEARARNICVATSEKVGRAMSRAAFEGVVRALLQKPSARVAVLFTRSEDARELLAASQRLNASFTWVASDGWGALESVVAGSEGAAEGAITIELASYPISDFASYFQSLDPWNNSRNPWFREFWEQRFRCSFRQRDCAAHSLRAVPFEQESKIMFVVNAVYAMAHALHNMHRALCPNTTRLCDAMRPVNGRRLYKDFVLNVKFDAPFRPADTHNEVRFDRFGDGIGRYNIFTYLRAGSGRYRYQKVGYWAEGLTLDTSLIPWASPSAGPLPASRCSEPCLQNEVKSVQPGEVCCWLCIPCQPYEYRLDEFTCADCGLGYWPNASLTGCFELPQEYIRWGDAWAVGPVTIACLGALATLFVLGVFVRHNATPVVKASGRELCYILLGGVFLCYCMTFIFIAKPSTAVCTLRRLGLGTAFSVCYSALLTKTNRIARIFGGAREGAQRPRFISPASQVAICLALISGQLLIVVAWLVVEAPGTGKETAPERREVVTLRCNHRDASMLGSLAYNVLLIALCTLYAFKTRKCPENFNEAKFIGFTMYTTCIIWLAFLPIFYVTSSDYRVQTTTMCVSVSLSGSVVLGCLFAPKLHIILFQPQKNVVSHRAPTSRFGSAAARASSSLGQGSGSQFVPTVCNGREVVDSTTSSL
row,Structure (SMILES),EC50
1,"COc1ccccc1C1CC1CNc1ccn2c(CC(F)(F)F)cnc2c1C#N (centres unmarked) [Example 29, 7-(((2-(2-Methoxyphenyl)cyclopropyl)methyl)amino)-3-(2,2,2-trifluoroethyl)imidazo[1,2-a]pyridine-8-carbonitrile]",81 nM
2,"CN(C[C@@H]1C[C@H]1c1ccc(F)cc1)c1ccn2c(CC3CC3)nnc2c1C(F)(F)F [Example 40, 3-(Cyclopropylmethyl)-N-(((1R,2R)-2-(4-fluorophenyl)cyclopropyl)methyl)-N-methyl-8-(trifluoromethyl)-[1,2,4]triazolo[4,3-a]pyridin-7-amine]",7 nM
3,"Fc1ccc([C@@H]2C[C@H]2CNc2ccn3c(CC4CC4)nnc3c2C(F)(F)F)cc1 [Example 22, 3-(Cyclopropylmethyl)-N-(((1R,2R)-2-(4-fluorophenyl)cyclopropyl)methyl)-8-(trifluoromethyl)-[1,2,4]triazolo[4,3-a]pyridin-7-amine]",1 nM
4,"Fc1ccc([C@H]2C[C@@H]2CNc2ccn3c(CC(F)(F)F)cnc3c2C(F)(F)F)cc1 (stereo in doubt) [Example 31, N-(((1S,2S)-2-(4-Fluorophenyl)cyclopropyl)methyl)-3-(2,2,2-trifluoroethyl)-8-(trifluoromethyl)imidazo[1,2-a]pyridin-7-amine]",24 nM
5,"Fc1ccc([C@@H]2C[C@H]2CNc2ccn3c(CC(F)(F)F)cnc3c2C(F)(F)F)cc1 (stereo in doubt) [Example 32, N-(((1R,2R)-2-(4-Fluorophenyl)cyclopropyl)methyl)-3-(2,2,2-trifluoroethyl)-8-(trifluoromethyl)imidazo[1,2-a]pyridin-7-amine]",44 nM
6,"Fc1ccc([C@H]2C[C@@H]2CNc2ccn3c(CC(F)(F)F)nnc3c2C(F)(F)F)cc1 [Example 21, N-(((1S,2S)-2-(4-Fluorophenyl)cyclopropyl)methyl)-3-(2,2,2-trifluoroethyl)-8-(trifluoromethyl)-[1,2,4]triazolo[4,3-a]pyridin-7-amine]",2 nM
7,"Clc1c(NC[C@H]2C[C@@H]2c2cccc3c2OCC3)ccn2c(CC3CC3)nnc12 [Example 35, 8-Chloro-3-(cyclopropylmethyl)-N-(((1S,2S)-2-(2,3-dihydrobenzofuran-7-yl)cyclopropyl)methyl)-[1,2,4]triazolo[4,3-a]pyridin-7-amine]",3 nM
8,"N#Cc1c(NCC2CC2c2cccc(F)c2)ccn2c(CC(F)(F)F)cnc12 (centres unmarked) [Example 26, 7-(((2-(3-Fluorophenyl)cyclopropyl)methyl)amino)-3-(2,2,2-trifluoroethyl)imidazo[1,2-a]pyridine-8-carbonitrile]",54 nM
9,"N#Cc1c(NCC2CC2c2ccc(F)cc2)ccn2c(CC(F)(F)F)cnc12 (centres unmarked) [Example 30, 7-(((2-(4-Fluorophenyl)cyclopropyl)methyl)amino)-3-(2,2,2-trifluoroethyl)imidazo[1,2-a]pyridine-8-carbonitrile]",108 nM
10,"Fc1ccc(C2(CNc3ccn4c(CC5CC5)nnc4c3Cl)CC2)cc1 [Example 16, 8-chloro-3-(cyclopropylmethyl)-N-((1-(4-fluorophenyl)cyclopropyl)methyl)-[1,2,4]triazolo[4,3-a]pyridin-7-amine]",46 nM
11,"Fc1cnc(C2CC2CNc2ccn3c(CC4CC4)nnc3c2C(F)(F)F)nc1 (centres unmarked) [Example 13, 3-(Cyclopropylmethyl)-N-((2-(5-fluoropyrimidin-2-yl)cyclopropyl)methyl)-8-(trifluoromethyl)-[1,2,4]triazolo[4,3-a]pyridin-7-amine]",102 nM
12,"Fc1ccc([C@H]2C[C@@H]2CNc2ccn3c(CC4CC4)nnc3c2C(F)(F)F)cc1 [Example 20, 3-(Cyclopropylmethyl)-N-(((1S,2S)-2-(4-fluorophenyl)cyclopropyl)methyl)-8-(trifluoromethyl)-[1,2,4]triazolo[4,3-a]pyridin-7-amine]",2 nM
13,"N#Cc1c(NCC2CC2c2ccccc2OC(F)(F)F)ccn2c(CC(F)(F)F)cnc12 (centres unmarked) [Example 28, 3-(2,2,2-Trifluoroethyl)-7-(((2-(2-(trifluoromethoxy)phenyl)cyclopropyl)methyl)amino)imidazo[1,2-a]pyridine-8-carbonitrile]",59 nM

# Next, values leading:
row,EC50,Structure (SMILES)
1,1 nM,"COc1cccc(F)c1[C@H]1C[C@@H]1CNc1ccn2c(CC3CC3)nnc2c1Cl [Example 33, 8-Chloro-3-(cyclopropylmethyl)-N-(((1S,2S)-2-(2-fluoro-6-methoxyphenyl)cyclopropyl)methyl)-[1,2,4]triazolo[4,3-a]pyridin-7-amine]"
2,4 nM,"Fc1ccccc1[C@H]1C[C@@H]1CNc1ccn2c(CC3CC3)nnc2c1Cl [Example 37, 8-Chloro-3-(cyclopropylmethyl)-N-(((1S,2S)-2-(2-fluorophenyl)cyclopropyl)methyl)-[1,2,4]triazolo[4,3-a]pyridin-7-amine]"
3,26 nM,"Clc1c(NC2CCC(c3ccccc3)C2)ccn2c(CC3CC3)nnc12 (centres unmarked) [Example 2, 8-Chloro-3-(cyclopropylmethyl)-N-(3-phenylcyclopentyl)-[1,2,4]triazolo[4,3-a]pyridin-7-amine]"
4,2 nM,"Fc1ccc(F)c([C@H]2C[C@@H]2CNc2ccn3c(CC4CC4)nnc3c2Cl)c1 [Example 43, 8-Chloro-3-(cyclopropylmethyl)-N-(((1S,2S)-2-(2,5-difluorophenyl)cyclopropyl)methyl)-[1,2,4]triazolo[4,3-a]pyridin-7-amine]"
5,5 nM,"Clc1c(NC[C@@H]2C[C@H]2c2ccccc2)ccn2c(CC3CC3)nnc12 (relative stereo) [Example 4, Trans-8-chloro-3-(cyclopropylmethyl)-N-((2-phenylcyclopropyl)methyl)-[1,2,4]triazolo[4,3-a]pyridin-7-amine]"
6,12 nM,"Clc1c(NC[C@H]2CCC[C@@H]2c2ccccc2)ccn2c(CC3CC3)nnc12 (single isomer, unassigned) [Example 45]"
7,12 nM,"COc1cccc([C@H]2C[C@@H]2CNc2ccn3c(CC4CC4)nnc3c2Cl)c1 [Example 8, 8-Chloro-3-(cyclopropylmethyl)-N-(((1S,2S)-2-(3-methoxyphenyl)cyclopropyl)methyl)-[1,2,4]triazolo[4,3-a]pyridin-7-amine]"
8,9 nM,"Fc1ccc(C2CC2CNc2ccn3c(CC4CC4)nnc3c2Cl)cc1 (racemic) [Example 1, 8-chloro-3-(cyclopropylmethyl)-N-((2-(4-fluorophenyl)cyclopropyl)methyl)-[1,2,4]triazolo[4,3-a]pyridin-7-amine]"
9,12 nM,"Clc1c(NC[C@H]2C[C@@H]2c2cccc3c2CCO3)ccn2c(CC3CC3)nnc12 [Example 11, 8-Chloro-3-(cyclopropylmethyl)-N-(((1S,2S)-2-(2,3-dihydrobenzofuran-4-yl)cyclopropyl)methyl)-[1,2,4]triazolo[4,3-a]pyridin-7-amine]"
10,1 nM,"COc1cccc(F)c1[C@@H]1C[C@H]1CNc1ccn2c(CC3CC3)nnc2c1Cl [Example 34, 8-Chloro-3-(cyclopropylmethyl)-N-(((1R,2R)-2-(2-fluoro-6-methoxyphenyl)cyclopropyl)methyl)-[1,2,4]triazolo[4,3-a]pyridin-7-amine]"
11,5 nM,"Fc1ccc([C@H]2C[C@@H]2CNc2ccn3c(CC4CC4)nnc3c2Cl)cc1 [Example 5, 8-Chloro-3-(cyclopropylmethyl)-N-(((1S,2S)-2-(4-fluorophenyl)cyclopropyl)methyl)-[1,2,4]triazolo[4,3-a]pyridin-7-amine]"
12,5 nM,"Clc1c(NC[C@@H]2CCC[C@H]2c2ccccc2)ccn2c(CC3CC3)nnc12 (single isomer, unassigned) [Example 46]"
13,2 nM,"Fc1ccc(F)c([C@@H]2C[C@H]2CNc2ccn3c(CC4CC4)nnc3c2Cl)c1 [Example 44, 8-Chloro-3-(cyclopropylmethyl)-N-(((1R,2R)-2-(2,5-difluorophenyl)cyclopropyl)methyl)-[1,2,4]triazolo[4,3-a]pyridin-7-amine]"
14,6 nM,"N#Cc1ccccc1C1CC1CNc1ccn2c(CC3CC3)nnc2c1Cl (centres unmarked) [Example 17, 2-(2-(((8-chloro-3-(cyclopropylmethyl)-[1,2,4]triazolo[4,3-a]pyridin-7-yl)amino)methyl)cyclopropyl)benzonitrile]"
15,367 nM,"Clc1c(NCC2CC2c2cccnc2)ccn2c(CC3CC3)nnc12 (centres unmarked) [Example 19, 8-chloro-3-(cyclopropylmethyl)-N-((2-(pyridin-3-yl)cyclopropyl)methyl)-[1,2,4]triazolo[4,3-a]pyridin-7-amine]"
16,4 nM,"Fc1ccccc1[C@@H]1C[C@H]1CNc1ccn2c(CC3CC3)nnc2c1Cl [Example 38, 8-Chloro-3-(cyclopropylmethyl)-N-(((1R,2R)-2-(2-fluorophenyl)cyclopropyl)methyl)-[1,2,4]triazolo[4,3-a]pyridin-7-amine]"
